Article PMC7525662, “Preclinical dosimetry models and the prediction of clinical doses of novel positron emission tomography radiotracers” (Scientific Reports, 2020)
Marks after values point to notes of the source that are not given here.

What was measured:
Parameters in all cases: species or system Sprague–Dawley rats
Details in all cases: rat, in vivo
[1] = OLINDA/EXM predicted clinical doses: adult female phantom, normalised τ, FBP
Description: (§1) PET studies were reconstructed using filtered-back projection (FBP) and Mediso’s iterative Tera-Tomo 3D reconstruction algorithm with the following settings: 4 iterations, 6 subsets, full detector model, normal regularization, spike filter on, voxel size 0.4 mm and 400‒600 keV energy window. PET data were corrected for randoms, scatter and attenuation. Time-activity curves for each source organ, whole-body and remainder of the body were plotted. […] Residence times (τ) were determined for each radiotracer in source organs, whole-body and remaining (any activity assigned to the whole-body but not assigned to a source organ). Each preclinical source organ’s τ was determined by calculating the area under its respective time-activity curve (activity normalised to the percentage maximum injected dose as a function of time) using the trapezoid method. […] From each individual animal, eight dosimetry models were constructed from all possible combinations of image reconstruction method (FBP or iterative), τ (non-normalised or normalised to human organ masses), and sex of phantom (male or female). Supplementary table 8. Predicted clinical absorbed organ doses and whole-body effective doses of PET radiotracers using normalised adult female source organ residence times from filtered backprojection reconstructions.

[2] = OLINDA/EXM predicted clinical doses: adult male phantom, non-normalised τ, iterative
Description: as §1, with “female).” for “female). Supplementary table 8. Predicted clinical absorbed organ doses and whole-body effective doses of PET radiotracers using normalised adult female source organ residence times from filtered backprojection reconstructions.”

[3] = OLINDA/EXM predicted clinical doses: adult female phantom, normalised τ, iterative
Description: as §1, with “12.” for “8.”, “iterative” for “filtered backprojection”

## O=C[C@H]([18F])[C@@H](O)[C@H](O)[C@H](O)CO [FDG, 2-deoxy-2-[^18F]fluoro-D-glucose]
[1]
  Effective Dose (mSv/MBq), Average ± SD: 3.21E-02 mSv/MBq
  Estimated Absorbed Dose of Organ, Average: Adrenals: 1.55E-02 mGy/MBq
  Estimated Absorbed Dose of Organ, Average: Brain: 1.10E-02 mGy/MBq
  Estimated Absorbed Dose of Organ, Average: Breasts: 1.16E-02 mGy/MBq
  Estimated Absorbed Dose of Organ, Average: Gallbladder Wall: 1.48E-02 mGy/MBq
  Estimated Absorbed Dose of Organ, Average: Heart Wall: 4.52E-02 mGy/MBq
  Estimated Absorbed Dose of Organ, Average: Kidneys: 1.70E-02 § mGy/MBq
  Estimated Absorbed Dose of Organ, Average: LLI Wall: 1.07E-01 † mGy/MBq
  Estimated Absorbed Dose of Organ, Average: Liver: 1.01E-02 mGy/MBq
  Estimated Absorbed Dose of Organ, Average: Lungs: 1.82E-02 mGy/MBq
  Estimated Absorbed Dose of Organ, Average: Muscle: 1.40E-02 mGy/MBq
  Estimated Absorbed Dose of Organ, Average: Osteogenic Cells: 2.19E-02 mGy/MBq
  Estimated Absorbed Dose of Organ, Average: Ovaries: 2.42E-02 mGy/MBq
  Estimated Absorbed Dose of Organ, Average: Pancreas: 1.63E-02 mGy/MBq
  Estimated Absorbed Dose of Organ, Average: Red Marrow: 1.37E-02 mGy/MBq
  Estimated Absorbed Dose of Organ, Average: Skin: 1.06E-02 mGy/MBq
  Estimated Absorbed Dose of Organ, Average: Small Intestine: 1.83E-02 mGy/MBq
  Estimated Absorbed Dose of Organ, Average: Spleen: 1.51E-02 mGy/MBq
  Estimated Absorbed Dose of Organ, Average: Stomach Wall: 1.57E-02 mGy/MBq
  Estimated Absorbed Dose of Organ, Average: Thymus: 1.48E-02 mGy/MBq
  Estimated Absorbed Dose of Organ, Average: Thyroid: 1.27E-02 mGy/MBq
  Estimated Absorbed Dose of Organ, Average: Total Body: 1.46E-02 mGy/MBq
  Estimated Absorbed Dose of Organ, Average: ULI Wall: 1.75E-02 mGy/MBq
  Estimated Absorbed Dose of Organ, Average: Urinary Bladder Wall: 1.18E-01 ‡ mGy/MBq
  Estimated Absorbed Dose of Organ, Average: Uterus: 2.28E-02 mGy/MBq
[2]
  Effective Dose (mSv/MBq), Average ± SD: 6.24E-02 mSv/MBq
  Estimated Absorbed Dose of Organ, Average ± SD: Adrenals: 9.39E-03 mGy/MBq
  Estimated Absorbed Dose of Organ, Average ± SD: Brain: 5.73E-03 mGy/MBq
  Estimated Absorbed Dose of Organ, Average ± SD: Breasts: 5.93E-03 mGy/MBq
  Estimated Absorbed Dose of Organ, Average ± SD: Gallbladder Wall: 1.04E-02 mGy/MBq
  Estimated Absorbed Dose of Organ, Average ± SD: Heart Wall: 2.60E-02 mGy/MBq
  Estimated Absorbed Dose of Organ, Average ± SD: Kidneys: 3.58E-02 § mGy/MBq
  Estimated Absorbed Dose of Organ, Average ± SD: LLI Wall: 1.92E-01 ‡ mGy/MBq
  Estimated Absorbed Dose of Organ, Average ± SD: Liver: 9.19E-03 mGy/MBq
  Estimated Absorbed Dose of Organ, Average ± SD: Lungs: 6.86E-03 mGy/MBq
  Estimated Absorbed Dose of Organ, Average ± SD: Muscle: 1.15E-02 mGy/MBq
  Estimated Absorbed Dose of Organ, Average ± SD: Osteogenic Cells: 1.26E-02 mGy/MBq
  Estimated Absorbed Dose of Organ, Average ± SD: Pancreas: 9.88E-03 mGy/MBq
  Estimated Absorbed Dose of Organ, Average ± SD: Red Marrow: 1.08E-02 mGy/MBq
  Estimated Absorbed Dose of Organ, Average ± SD: Skin: 6.97E-03 mGy/MBq
  Estimated Absorbed Dose of Organ, Average ± SD: Small Intestine: 1.91E-02 mGy/MBq
  Estimated Absorbed Dose of Organ, Average ± SD: Spleen: 9.14E-03 mGy/MBq
  Estimated Absorbed Dose of Organ, Average ± SD: Stomach Wall: 9.73E-03 mGy/MBq
  Estimated Absorbed Dose of Organ, Average ± SD: Testes: 1.82E-02 mGy/MBq
  Estimated Absorbed Dose of Organ, Average ± SD: Thymus: 7.56E-03 mGy/MBq
  Estimated Absorbed Dose of Organ, Average ± SD: Thyroid: 6.91E-03 mGy/MBq
  Estimated Absorbed Dose of Organ, Average ± SD: Total Body: 1.19E-02 mGy/MBq
  Estimated Absorbed Dose of Organ, Average ± SD: ULI Wall: 1.49E-02 mGy/MBq
  Estimated Absorbed Dose of Organ, Average ± SD: Urinary Bladder Wall: 5.53E-01 † mGy/MBq
[3]
  Effective Dose: 1.15E-02 mSv/MBq
  Estimated Absorbed Dose of Organ, Brain: 1.19E-02 mGy/MBq
  Estimated Absorbed Dose of Organ, Breasts: 1.84E-02 mGy/MBq
  Estimated Absorbed Dose of Organ, Gallbladder Wall: 8.62E-03 mGy/MBq
  Estimated Absorbed Dose of Organ, Heart Wall: 1.28E-02 mGy/MBq
  Estimated Absorbed Dose of Organ, Kidneys: 9.59E-02 ‡ mGy/MBq
  Estimated Absorbed Dose of Organ, LLI Wall: 1.11E-02 mGy/MBq
  Estimated Absorbed Dose of Organ, Liver: 2.72E-02 mGy/MBq
  Estimated Absorbed Dose of Organ, Lungs: 1.15E-02 mGy/MBq
  Estimated Absorbed Dose of Organ, Muscle: 1.79E-02 mGy/MBq
  Estimated Absorbed Dose of Organ, Osteogenic Cells: 1.02E-02 mGy/MBq
  Estimated Absorbed Dose of Organ, Ovaries: 1.03E-02 mGy/MBq
  Estimated Absorbed Dose of Organ, Pancreas: 1.95E-02 mGy/MBq
  Estimated Absorbed Dose of Organ, Red Marrow: 1.23E-02 mGy/MBq
  Estimated Absorbed Dose of Organ, Skin: 1.51E-02 mGy/MBq
  Estimated Absorbed Dose of Organ, Small Intestine: 8.33E-02 § mGy/MBq
  Estimated Absorbed Dose of Organ, Spleen: 7.40E-03 mGy/MBq
  Estimated Absorbed Dose of Organ, Stomach Wall: 1.38E-02 mGy/MBq
  Estimated Absorbed Dose of Organ, Thymus: 1.10E-02 mGy/MBq
  Estimated Absorbed Dose of Organ, Thyroid: 1.16E-02 mGy/MBq
  Estimated Absorbed Dose of Organ, ULI Wall: 1.15E-02 mGy/MBq
  Estimated Absorbed Dose of Organ, Urinary Bladder Wall: 8.48E-03 mGy/MBq
  Estimated Absorbed Dose of Organ, Uterus: 1.93E-01 † mGy/MBq
  Estimated Absorbed Dose, Total Body: 2.12E-02 mGy/MBq
